Measured values: PubChem BioAssay AID720671 (NMMLSC, 2013)
Active and inactive are the calls of the source. No rule for the calls is given here.

Biological target: Botulinum neurotoxin type F light chain protease (Clostridium botulinum)
Assay: inhibition of botulinum toxin F protease cleavage – biochemical, multiplex microsphere, Powder Set 03, dose response (AID 720671)
Conditions: multiplex microsphere protease cleavage assay, BoNT/F LC

Row | SMILES | EC50
1 | CC(C)CS(=O)(=O)Nc1ccc2nc(-c3cccs3)c(-c3cccs3)nc2c1 | > 20 µM (inactive)
2 | CCCCOC(=O)Nc1ccc2nc(-c3ccccc3)c(-c3ccccc3)nc2c1 | > 20 µM (inactive)
3 | CC(Oc1ccccc1)C(=O)Nc1ccc2nc(-c3ccccc3)c(-c3ccccc3)nc2c1 (configuration not stated) | > 20 µM (inactive)
4 | O=S(=O)(Nc1ccc2nc(-c3ccccc3)c(-c3ccccc3)nc2c1)C1CC1 | > 20 µM (inactive)
5 | CCOC(=O)Nc1ccc2nc(-c3cccs3)c(-c3cccs3)nc2c1 | > 20 µM (inactive)
6 | COc1ccc(-c2nc3nc(-c4ccccc4)cn3nc2-c2ccc(OC)cc2)cc1 | > 20 µM (inactive)
7 | CC(C)(C)C(=O)Nc1ccc2nc(-c3ccccc3)c(-c3ccccc3)nc2c1 | > 20 µM (inactive)
8 | COC(=O)Nc1ccc2nc(-c3cccs3)c(-c3cccs3)nc2c1 | > 20 µM (inactive)
9 | CCCS(=O)(=O)Nc1ccc2nc(-c3ccccc3)c(-c3ccccc3)nc2c1 | > 20 µM (inactive)
10 | COc1ccc(-c2cn3nc(-c4ccc(C)cc4)c(-c4ccc(C)cc4)nc3n2)c(OC)c1 | > 20 µM (inactive)
11 | COc1ccc(-c2nc3nc(-c4ccc(OC(F)(F)F)cc4)cn3nc2-c2ccc(OC)cc2)cc1 | > 20 µM (inactive)
12 | Cc1ccc(-c2nc3nc(-c4ccc(F)cc4)cn3nc2-c2ccc(C)cc2)cc1 | > 20 µM (inactive)
13 | O=C(Nc1ccc2nc(-c3cccs3)c(-c3cccs3)nc2c1)NC1CCCC1 | > 20 µM (inactive)
14 | COc1ccc(-c2cn3nc(-c4ccccc4)c(-c4ccccc4)nc3n2)c(OC)c1 | > 20 µM (inactive)
15 | COc1cccc(-c2cn3nc(-c4ccc(F)cc4)c(-c4ccc(F)cc4)nc3n2)c1 | 7.9 µM
16 | COc1ccc(-c2nc3nc(-c4ccc(F)cc4)cn3nc2-c2ccc(OC)cc2)cc1 | > 20 µM (inactive)
17 | O=C(Nc1ccc2nc(-c3ccccc3)c(-c3ccccc3)nc2c1)OCc1ccccc1 | > 20 µM (inactive)
18 | COc1ccc(-c2nc3nc(-c4cccc(OC)c4)cn3nc2-c2ccc(OC)cc2)cc1 | > 20 µM (inactive)
19 | CC(C)(C)NC(=O)Nc1ccc2nc(-c3ccccc3)c(-c3ccccc3)nc2c1 | > 20 µM (inactive)
20 | CC(C)NC(=O)Nc1ccc2nc(-c3cccs3)c(-c3cccs3)nc2c1 | > 20 µM (inactive)
21 | COc1ccc(-c2nc3nc(-c4ccc(S(C)(=O)=O)cc4)cn3nc2-c2ccc(OC)cc2)cc1 | > 20 µM (inactive)

Row | SMILES | EC50
22 | O=C(Nc1ccc2nc(-c3ccccc3)c(-c3ccccc3)nc2c1)NC1CCCC1 | > 20 µM (inactive)
23 | O=C(Nc1ccc2nc(-c3cccs3)c(-c3cccs3)nc2c1)C1CCC1 | > 20 µM (inactive)
24 | CCC(=O)Nc1ccc2nc(-c3ccccc3)c(-c3ccccc3)nc2c1 | > 20 µM (inactive)
25 | Cc1ccc(-c2nc3nc(-c4ccccc4)cn3nc2-c2ccc(C)cc2)cc1 | 5.4 µM
26 | CCC(=O)Nc1ccc2nc(-c3cccs3)c(-c3cccs3)nc2c1 | > 20 µM (inactive)
27 | CCNC(=O)Nc1ccc2nc(-c3cccs3)c(-c3cccs3)nc2c1 | > 20 µM (inactive)
28 | CCCOC(=O)Nc1ccc2nc(-c3cccs3)c(-c3cccs3)nc2c1 | > 20 µM (inactive)
29 | COc1ccc(-c2nc3nc(-c4ccc(C)cc4)cn3nc2-c2ccc(OC)cc2)cc1 | > 20 µM (inactive)
30 | CC(C)CS(=O)(=O)Nc1ccc2nc(-c3ccccc3)c(-c3ccccc3)nc2c1 | > 20 µM (inactive)
31 | CC(=O)Nc1ccc2nc(-c3ccccc3)c(-c3ccccc3)nc2c1 | > 20 µM (inactive)
32 | CS(=O)(=O)c1ccc(-c2cn3nc(-c4ccc(F)cc4)c(-c4ccc(F)cc4)nc3n2)cc1 | > 20 µM (inactive)
33 | Fc1ccc(-c2nc3nc(-c4ccccc4)cn3nc2-c2ccc(F)cc2)cc1 | 8.9 µM
34 | O=S(=O)(Nc1ccc2nc(-c3cccs3)c(-c3cccs3)nc2c1)C1CC1 | > 20 µM (inactive)
35 | Clc1ccc(-c2cn3nc(-c4ccccc4)c(-c4ccccc4)nc3n2)c(Cl)c1 | > 20 µM (inactive)
36 | CC(C)OC(=O)Nc1ccc2nc(-c3cccs3)c(-c3cccs3)nc2c1 | > 20 µM (inactive)
37 | O=C(Nc1ccc2nc(-c3ccccc3)c(-c3ccccc3)nc2c1)C1CC1 | > 20 µM (inactive)
38 | COc1ccc(-c2cn3nc(-c4ccc(F)cc4)c(-c4ccc(F)cc4)nc3n2)c(OC)c1 | 1.5 µM
39 | COc1ccc(-c2nc3nc(-c4ccc(C#N)cc4)cn3nc2-c2ccc(OC)cc2)cc1 | > 20 µM (inactive)
40 | Fc1cccc(-c2cn3nc(-c4ccccc4)c(-c4ccccc4)nc3n2)c1 | 18 µM
41 | COc1cccc(-c2cn3nc(-c4ccccc4)c(-c4ccccc4)nc3n2)c1 | > 20 µM (inactive)
42 | O=C(Nc1ccc2nc(-c3cccs3)c(-c3cccs3)nc2c1)OCc1ccccc1 | > 20 µM (inactive)

Row | SMILES | EC50
43 | O=C(Nc1ccc2nc(-c3ccccc3)c(-c3ccccc3)nc2c1)C1CCC1 | > 20 µM (inactive)
44 | CS(=O)(=O)c1ccc(-c2cn3nc(-c4ccccc4)c(-c4ccccc4)nc3n2)cc1 | > 20 µM (inactive)
45 | O=C(Nc1ccc2nc(-c3ccccc3)c(-c3ccccc3)nc2c1)C1CCCCC1 | > 20 µM (inactive)
46 | COc1ccccc1-c1cn2nc(-c3ccccc3)c(-c3ccccc3)nc2n1 | > 20 µM (inactive)
47 | COc1ccc(-c2cn3nc(-c4ccc(C)cc4)c(-c4ccc(C)cc4)nc3n2)cc1 | > 20 µM (inactive)
48 | COC(=O)Nc1ccc2nc(-c3ccccc3)c(-c3ccccc3)nc2c1 | > 20 µM (inactive)
49 | Cc1ccc(-c2cn3nc(-c4ccc(C)cc4)c(-c4ccc(C)cc4)nc3n2)cc1 | > 20 µM (inactive)
50 | COc1ccc(-c2nc3nc(-c4ccccc4OC)cn3nc2-c2ccc(OC)cc2)cc1 | 5.2 µM
51 | Cc1ccc(-c2nc3nc(-c4cccc(F)c4)cn3nc2-c2ccc(C)cc2)cc1 | > 20 µM (inactive)
52 | CC(C)NC(=O)Nc1ccc2nc(-c3ccccc3)c(-c3ccccc3)nc2c1 | > 20 µM (inactive)
53 | O=C(Nc1ccc2nc(-c3ccccc3)c(-c3ccccc3)nc2c1)C1CCCC1 | > 20 µM (inactive)
54 | CCCS(=O)(=O)Nc1ccc2nc(-c3cccs3)c(-c3cccs3)nc2c1 | > 20 µM (inactive)
55 | Fc1ccc(-c2cn3nc(-c4ccccc4)c(-c4ccccc4)nc3n2)cc1 | > 20 µM (inactive)
56 | CC(C)OC(=O)Nc1ccc2nc(-c3ccccc3)c(-c3ccccc3)nc2c1 | > 20 µM (inactive)
57 | COc1ccccc1-c1cn2nc(-c3ccc(C)cc3)c(-c3ccc(C)cc3)nc2n1 | > 20 µM (inactive)
58 | COc1ccc(-c2cn3nc(-c4ccc(F)cc4)c(-c4ccc(F)cc4)nc3n2)cc1 | > 20 µM (inactive)
59 | Fc1ccc(-c2cn3nc(-c4ccc(F)cc4)c(-c4ccc(F)cc4)nc3n2)cc1 | 4 µM
60 | Cc1ccc(-c2nc3nc(-c4ccc(S(C)(=O)=O)cc4)cn3nc2-c2ccc(C)cc2)cc1 | > 20 µM (inactive)
61 | CCCCOC(=O)Nc1ccc2nc(-c3cccs3)c(-c3cccs3)nc2c1 | > 20 µM (inactive)
62 | CCOC(=O)Nc1ccc2nc(-c3ccccc3)c(-c3ccccc3)nc2c1 | > 20 µM (inactive)
63 | Cc1ccc(-c2cn3nc(-c4ccc(F)cc4)c(-c4ccc(F)cc4)nc3n2)cc1 | > 20 µM (inactive)

Row | SMILES | EC50
64 | Cc1ccc(-c2nc3nc(-c4ccc(C#N)cc4)cn3nc2-c2ccc(C)cc2)cc1 | 11.2 µM
65 | COc1ccc(-c2cn3nc(-c4ccc(OC)cc4)c(-c4ccc(OC)cc4)nc3n2)cc1 | > 20 µM (inactive)
66 | FC(F)(F)Oc1ccc(-c2cn3nc(-c4ccccc4)c(-c4ccccc4)nc3n2)cc1 | > 20 µM (inactive)
67 | COc1ccc(-c2nc3nc(-c4ccc(OC)cc4OC)cn3nc2-c2ccc(OC)cc2)cc1 | > 20 µM (inactive)
68 | COc1cccc(-c2cn3nc(-c4ccc(C)cc4)c(-c4ccc(C)cc4)nc3n2)c1 | > 20 µM (inactive)
69 | O=C(Nc1ccc2nc(-c3cccs3)c(-c3cccs3)nc2c1)C1CCCC1 | > 20 µM (inactive)
70 | Fc1ccc(-c2nc3nc(-c4ccc(OC(F)(F)F)cc4)cn3nc2-c2ccc(F)cc2)cc1 | > 20 µM (inactive)
71 | COc1ccccc1-c1cn2nc(-c3ccc(F)cc3)c(-c3ccc(F)cc3)nc2n1 | 5.7 µM
72 | CCNC(=S)Nc1ccc2nc(-c3ccccc3)c(-c3ccccc3)nc2c1 | > 20 µM (inactive)
73 | CCS(=O)(=O)Nc1ccc2nc(-c3ccccc3)c(-c3ccccc3)nc2c1 | > 20 µM (inactive)
74 | COc1ccc(-c2nc3nc(-c4cccc(F)c4)cn3nc2-c2ccc(OC)cc2)cc1 | 4.4 µM
75 | CCNC(=O)Nc1ccc2nc(-c3ccccc3)c(-c3ccccc3)nc2c1 | > 20 µM (inactive)
76 | Fc1ccc(-c2nc3nc(-c4cccc(F)c4)cn3nc2-c2ccc(F)cc2)cc1 | 5.7 µM
77 | O=C(Nc1ccc2nc(-c3cccs3)c(-c3cccs3)nc2c1)C1CC1 | > 20 µM (inactive)
78 | N#Cc1ccc(-c2cn3nc(-c4ccc(F)cc4)c(-c4ccc(F)cc4)nc3n2)cc1 | > 20 µM (inactive)
79 | N#Cc1ccc(-c2cn3nc(-c4ccccc4)c(-c4ccccc4)nc3n2)cc1 | > 20 µM (inactive)
80 | CCCOC(=O)Nc1ccc2nc(-c3ccccc3)c(-c3ccccc3)nc2c1 | > 20 µM (inactive)
81 | CCCNC(=O)Nc1ccc2nc(-c3ccccc3)c(-c3ccccc3)nc2c1 | > 20 µM (inactive)
82 | Cc1ccc(-c2nc3nc(-c4ccc(OC(F)(F)F)cc4)cn3nc2-c2ccc(C)cc2)cc1 | > 20 µM (inactive)
